{
  "source": "patent US9877980B2",
  "about": "“Method and composition for treatment or prevention of type 2 diabetes and hyperlipidemia” (Chun-Ching Shih, priority 2016, dated 2018)",
  "type_in_all_cases": "in vivo",
  "key": {"[1]": {"test_system": "C57BL/6J mice on high-fat diet (HFD)", "assay": "Absolute tissue weight, body weight, weight gain and food intake in HFD mice", "details": "4 weeks", "experimental": "(§1) The following experiment was performed and approved by the guidelines of the Institutional Animal Care and Use Committee of Central Taiwan University of Science and Technology. The 4-week old male C57BL/6J mice (total amount n=63) were purchased from the National Laboratory Animal Breeding and Research Center (Taipei, Taiwan). After acclimatization for one week, all of the mice were divided randomly into the control (CON) group and the high-fat diet (HFD) group. For the following 12 weeks, the CON group (n=9) was kept on a low-fat diet (Diet 12450B, Research Diets, Inc., New Brunswick, N.J., USA), while the HFD group (n=54) was exposed to a high-fat diet (Diet 12451, Research Diets, New Brunswick, N.J., USA). The low-fat diet was composed of protein 20%, carbohydrate 70% and fat 10%, whereas the high-fat diet was composed of protein 20%, carbohydrate 35%, and fat 45% (of total energy, % kcal). After HFD exposure for 8 weeks, the HFD group was further randomly subdivided into 6 groups (n=9 per group) to receive different treatments by oral gavage once daily for four weeks and on HFD. […] The HF+B1, HF+B2, and […] are collectively termed BB-treated HFD groups in the following examples. The CON mice were administered vehicle. After dosing for 4 weeks, the mice were given no food at night and sacrificed after 12 h of fasting on the next day. All of the individual tissues were collected and weighed, and portions were instantly frozen using liquid nitrogen and kept at −80° C. for subsequent target gene analysis. Blood samples (0.8 mL) were collected for analysis of blood parameters.\nBody weight of each mouse was monitored and measured daily at the same time throughout the experimentation. The difference in body weight between two consecutive days is defined as body weight gain. The food pellets for mice were weighed and put into the food container. Unconsumed pellets of high-fat diet were discarded each day and fresh pellets of high-fat diet were provided to ensure food quality throughout the experimentation. The high-fat food pellets were stored at 4° C."}, "GLUT4": {"test_system": "GLUT4", "assay": "Western blotting of membrane GLUT4 in skeletal muscle", "details": "HFD mice, 4 weeks, vs HF group", "experimental": "as §1, with “For the following 12 weeks, the CON group (n=9) was kept on a low-fat diet (Diet 12450B, Research Diets, Inc., New Brunswick, N.J., USA), while the HFD group (n=54) was exposed to a high-fat diet (Diet 12451, Research Diets, New Brunswick, N.J., USA). The low-fat diet was composed of protein 20%, carbohydrate 70% and fat 10%, whereas the high-fat diet was composed of protein 20%, carbohydrate 35%, and fat 45% (of total energy, % kcal).” left out\nThe protein concentration in supernatant was determined with a BCA protein assay kit (Thermo Scientific, Rockford, Ill., USA). […] Immunoreactive bands were detected with ECL reagent kit (GE Healthcare BioSciences, Buckinghamshire, UK)."}, "PEPCK": {"test_system": "PEPCK", "assay": "Semi-quantitative RT-PCR of liver mRNA: PEPCK", "details": "HFD mice, 4 weeks, vs HF group", "experimental": "as §1, with “For the following 12 weeks, the CON group (n=9) was kept on a low-fat diet (Diet 12450B, Research Diets, Inc., New Brunswick, N.J., USA), while the HFD group (n=54) was exposed to a high-fat diet (Diet 12451, Research Diets, New Brunswick, N.J., USA). The low-fat diet was composed of protein 20%, carbohydrate 70% and fat 10%, whereas the high-fat diet was composed of protein 20%, carbohydrate 35%, and fat 45% (of total energy, % kcal).” left out\nTotal RNA from liver tissue of mice was isolated with a Trizol Reagent (Molecular Research Center, Inc., Cincinnati, Ohio, USA) according to the manufacturer's instructions. The integrity of the extracted total RNA was examined by 2% agarose gel electrophoresis, and the RNA concentration was determined by the ultraviolet (UV) light absorbency at 260 nm and 280 nm (Spectrophotometer U-2800A, Hitachi). The quality of the RNA was confirmed by ethidium bromide staining of 18S and 28S ribosomal RNA after electrophoresis on 2% agarose gel containing 6% formaldehyde.\n(§2) Levels of mRNA of genes of interest were quantified by semi-quantitative reverse transcription polymerase chain reaction (RT-PCR). […] PCR products were analyzed by 2% agarose gels and stained with ethidium bromide."}, "adiponectin": {"test_system": "adiponectin", "assay": "Semi-quantitative RT-PCR of liver mRNA: adiponectin", "details": "HFD mice; 40 mg/kg/day oral gavage, 4 weeks; vs HF group", "experimental": "The following experiment was performed and approved by the guidelines of the Institutional Animal Care and Use Committee of Central Taiwan University of Science and Technology. The 4-week old male C57BL/6J mice (total amount n=63) were purchased from the National Laboratory Animal Breeding and Research Center (Taipei, Taiwan). After acclimatization for one week, all of the mice were divided randomly into the control (CON) group and the high-fat diet (HFD) group. […] After HFD exposure for 8 weeks, the HFD group was further randomly subdivided into 6 groups (n=9 per group) to receive different treatments by oral gavage once daily for four weeks and on HFD. […] The HF+B1, HF+B2, and […] are collectively termed BB-treated HFD groups in the following examples. […]\nTotal RNA from liver tissue of mice was isolated with a Trizol Reagent (Molecular Research Center, Inc., Cincinnati, Ohio, USA) according to the manufacturer's instructions. The integrity of the extracted total RNA was examined by 2% agarose gel electrophoresis, and the RNA concentration was determined by the ultraviolet (UV) light absorbency at 260 nm and 280 nm (Spectrophotometer U-2800A, Hitachi). […]\nas §2"}},
  "note": "Marks after values point to notes of the source that are not given here.",
  "data": [
    {"smiles": "OCC1O[C@@H](O[C@@H]2Cc3c(O)cc(O)cc3O[C@@H]2c2ccc(O)c(O)c2)C(O)C(O)[C@@H]1O", "note": "(single isomer, unassigned; (-)) [compound of formula I, (−)-epicatechin-3-O-β-D-allopyranoside]", "values": [
      {"measurement": "Absolute tissue weight BAT", "setting": "[1]; 10 mg/kg/day oral gavage", "value": "0.168 ± 0.011", "unit": "g"},
      {"measurement": "Absolute tissue weight EWAT", "setting": "[1]; 10 mg/kg/day oral gavage", "value": "0.906 ± 0.105^d g"},
      {"measurement": "Absolute tissue weight Liver", "setting": "[1]; 10 mg/kg/day oral gavage", "value": "0.899 ± 0.036", "unit": "g"},
      {"measurement": "Absolute tissue weight MWAT", "setting": "[1]; 10 mg/kg/day oral gavage", "value": "0.293 ± 0.018", "unit": "g"},
      {"measurement": "Absolute tissue weight RWAT", "setting": "[1]; 10 mg/kg/day oral gavage", "value": "0.280 ± 0.043^d g"},
      {"measurement": "Absolute tissue weight Skeletal muscle", "setting": "[1]; 10 mg/kg/day oral gavage", "value": "0.873 ± 0.060", "unit": "g"},
      {"measurement": "Absolute tissue weight Visceral fat", "setting": "[1]; 10 mg/kg/day oral gavage", "value": "1.273 ± 0.147^d g"},
      {"measurement": "Body weight", "setting": "[1]; 10 mg/kg/day oral gavage", "value": "27.85 ± 1.04", "unit": "g"},
      {"measurement": "Food intake", "setting": "[1]; 10 mg/kg/day oral gavage", "value": "2.08 ± 0.05", "unit": "g/day/mouse"},
      {"measurement": "Weight gain", "setting": "[1]; 10 mg/kg/day oral gavage", "value": "0.40 ± 0.28", "unit": "g"},
      {"measurement": "Absolute tissue weight BAT", "setting": "[1]; 20 mg/kg/day oral gavage", "value": "0.156 ± 0.017", "unit": "g"},
      {"measurement": "Absolute tissue weight EWAT", "setting": "[1]; 20 mg/kg/day oral gavage", "value": "0.902 ± 0.084^d g"},
      {"measurement": "Absolute tissue weight Liver", "setting": "[1]; 20 mg/kg/day oral gavage", "value": "0.866 ± 0.036", "unit": "g"},
      {"measurement": "Absolute tissue weight MWAT", "setting": "[1]; 20 mg/kg/day oral gavage", "value": "0.267 ± 0.021", "unit": "g"},
      {"measurement": "Absolute tissue weight RWAT", "setting": "[1]; 20 mg/kg/day oral gavage", "value": "0.263 ± 0.034^f g"},
      {"measurement": "Absolute tissue weight Skeletal muscle", "setting": "[1]; 20 mg/kg/day oral gavage", "value": "0.813 ± 0.077", "unit": "g"},
      {"measurement": "Absolute tissue weight Visceral fat", "setting": "[1]; 20 mg/kg/day oral gavage", "value": "1.199 ± 0.104^e g"},
      {"measurement": "Body weight", "setting": "[1]; 20 mg/kg/day oral gavage", "value": "27.88 ± 1.14", "unit": "g"},
      {"measurement": "Food intake", "setting": "[1]; 20 mg/kg/day oral gavage", "value": "2.03 ± 0.03", "unit": "g/day/mouse"},
      {"measurement": "Weight gain", "setting": "[1]; 20 mg/kg/day oral gavage", "value": "0.61 ± 0.43", "unit": "g"},
      {"measurement": "Absolute tissue weight BAT", "setting": "[1]; 40 mg/kg/day oral gavage", "value": "0.144 ± 0.010", "unit": "g"},
      {"measurement": "Absolute tissue weight EWAT", "setting": "[1]; 40 mg/kg/day oral gavage", "value": "0.936 ± 0.075^d g"},
      {"measurement": "Absolute tissue weight Liver", "setting": "[1]; 40 mg/kg/day oral gavage", "value": "0.848 ± 0.028", "unit": "g"},
      {"measurement": "Absolute tissue weight MWAT", "setting": "[1]; 40 mg/kg/day oral gavage", "value": "0.236 ± 0.030", "unit": "g"},
      {"measurement": "Absolute tissue weight RWAT", "setting": "[1]; 40 mg/kg/day oral gavage", "value": "0.233 ± 0.026^f g"},
      {"measurement": "Absolute tissue weight Skeletal muscle", "setting": "[1]; 40 mg/kg/day oral gavage", "value": "1.156 ± 0.102^d g"},
      {"measurement": "Absolute tissue weight Visceral fat", "setting": "[1]; 40 mg/kg/day oral gavage", "value": "1.198 ± 0.075^e g"},
      {"measurement": "Body weight", "setting": "[1]; 40 mg/kg/day oral gavage", "value": "27.15 ± 0.84", "unit": "g"},
      {"measurement": "Food intake", "setting": "[1]; 40 mg/kg/day oral gavage", "value": "2.02 ± 0.03", "unit": "g/day/mouse"},
      {"measurement": "Weight gain", "setting": "[1]; 40 mg/kg/day oral gavage", "value": "−0.05 ± 0.11^d g"},
      {"measurement": "protein level of GLUT4 at the plasma membrane", "setting": "GLUT4; 10 mg/kg/day oral gavage", "value": "significantly enhanced"},
      {"measurement": "protein level of GLUT4 at the plasma membrane", "setting": "GLUT4; 20 mg/kg/day oral gavage", "value": "significantly enhanced"},
      {"measurement": "protein level of GLUT4 at the plasma membrane", "setting": "GLUT4; 40 mg/kg/day oral gavage", "value": "significantly enhanced"},
      {"measurement": "liver mRNA level of PEPCK", "setting": "PEPCK; 10 mg/kg/day oral gavage", "value": "significantly reduced"},
      {"measurement": "liver mRNA level of PEPCK", "setting": "PEPCK; 20 mg/kg/day oral gavage", "value": "significantly reduced"},
      {"measurement": "liver mRNA level of PEPCK", "setting": "PEPCK; 40 mg/kg/day oral gavage", "value": "significantly reduced"},
      {"measurement": "liver adiponectin mRNA level", "setting": "adiponectin", "value": "enhanced"}
    ]}
  ]
}
